Assay results as given in Sander's compilation of Henry's law constants.

Assay: Henry solubility constant Hcp at 298.15 K (mol/(m3 Pa))
[1] = reference: Buttery et al. (1965)
[2] = reference: Wetlaufer et al. (1964)
[3] = reference: Holzwarth et al. (1984)
[4] = reference: Bakierowska and Trzeszczyński (2003)
[5] = reference: Boggs and Buck (1958)
[6] = reference: Dohányosová et al. (2004)
[7] = reference: Hawthorne et al. (1985)
[8] = reference: Bowden et al. (1998a)
[9] = reference: Christie and Crisp (1967)
[10] = reference: Schuhfried et al. (2011)

## CCCC=O [butanal]
[1]
  Henry solubility constant Hcp: 0.064
reference: Ji and Evans (2007)
  Henry solubility constant Hcp: 0.089

## CCCC [butane]
reference: Ben-Naim and Battino (1985)
  Henry solubility constant Hcp: 1.2e-05
reference: Carroll et al. (1997)
  Henry solubility constant Hcp: 1.3e-05
reference: McAuliffe (1963)
  Henry solubility constant Hcp: 1.1e-05
reference: Morrison and Billett (1952)
  Henry solubility constant Hcp: 1.1e-05
[2]
  Henry solubility constant Hcp: 1.3e-05

## COC(=O)CCC(=O)OC [butanedioic acid, dimethyl ester]
reference: Katrib et al. (2003)
  Henry solubility constant Hcp: 30

## CCCCOC(C)=O [butyl ethanoate]
reference: Fenclová et al. (2014)
  Henry solubility constant Hcp: 0.035
reference: Ioffe et al. (1984)
  Henry solubility constant Hcp: 0.035
reference: Kieckbusch and King (1979b)
  Henry solubility constant Hcp: 0.035

## CCCCOC=O [butyl methanoate]
reference: Wittig et al. (2001)
  Henry solubility constant Hcp: 0.019

## CCCCc1ccccc1 [butylbenzene]
reference: Perlinger et al. (1993)
  Henry solubility constant Hcp: 0.00062

## c1ccc2c(c1)[nH]c1ccccc12 [carbazole]
reference: Odabasi et al. (2006)
  Henry solubility constant Hcp: 93

## CNC(=O)Oc1cccc2c1OC(C)(C)C2 [carbofuran]
reference: Mabury and Crosby (1996)
  Henry solubility constant Hcp: > 99

## S=C=S [carbon disulfide]
reference: De Bruyn et al. (1995b)
  Henry solubility constant Hcp: 0.00054
reference: Elliott (1989)
  Henry solubility constant Hcp: 0.00062

## O=C=C=C=O [carbon suboxide]
reference: Keßel et al. (2017)
  Henry solubility constant Hcp: 0.011

## COC(=O)OC [carbonic acid, dimethyl ester]
reference: Böhme et al. (2008)
  Henry solubility constant Hcp: 0.16

## NCl [chloramine]
[3]
  Henry solubility constant Hcp: 0.92

## [O][Cl+][O-] [chlorine dioxide]
reference: Bigorgne (1947)
  Henry solubility constant Hcp: 0.0066
reference: Holst (1944)
  Henry solubility constant Hcp: 0.0097
reference: Ishi (1958)
  Henry solubility constant Hcp: 0.011
reference: Kepinski and Trzeszczynski (1964)
  Henry solubility constant Hcp: 0.01
reference: Taube and Dodgen (1949)
  Henry solubility constant Hcp: 0.01

## ClC1CCCCC1 [chlorocyclohexane]
[4]
  Henry solubility constant Hcp: 0.0028

## FC(F)Cl [chlorodifluoromethane]
[5]
  Henry solubility constant Hcp: 0.00035
reference: Chang and Criddle (1995)
  Henry solubility constant Hcp: 0.00017
reference: Maaßen (1995)
  Henry solubility constant Hcp: 0.00035
reference: Reichl (1995)
  Henry solubility constant Hcp: 0.00035
reference: Zheng et al. (1997)
  Henry solubility constant Hcp: 0.00034

## CCCl [chloroethane]
reference: Chen et al. (2012)
  Henry solubility constant Hcp: 0.00076
reference: Gossett (1987)
  Henry solubility constant Hcp: 0.00088
reference: Maaßen (1995)
  Henry solubility constant Hcp: 0.00089
reference: Reichl (1995)
  Henry solubility constant Hcp: 0.00093

## FCCl [chlorofluoromethane]
[5]
  Henry solubility constant Hcp: 0.0015

## FC(F)(F)C(F)(F)Cl [chloropentafluoroethane]
reference: Reichl (1995)
  Henry solubility constant Hcp: 3.1e-06

## FC(F)(F)Cl [chlorotrifluoromethane]
reference: Park et al. (1982)
  Henry solubility constant Hcp: 7.8e-06
reference: Reichl (1995)
  Henry solubility constant Hcp: 8.9e-06
reference: Scharlin and Battino (1994)
  Henry solubility constant Hcp: 9e-06
reference: Scharlin and Battino (1995)
  Henry solubility constant Hcp: 9e-06

## C[C@@H]1CCCC[C@@H]1C [cis-1,2-dimethylcyclohexane]
[6]
  Henry solubility constant Hcp: 2.7e-05

## ClC1=C(Cl)[C@]2(Cl)[C@@H]3[C@@H](Cl)[C@@H](Cl)C[C@@H]3[C@@]1(Cl)C2(Cl)Cl [cis-chlordane]
reference: Jantunen and Bidleman (2006)
  Henry solubility constant Hcp: 0.037

## C1CCCCC1 [cyclohexane]
reference: Tsonopoulos and Wilson (1983)
  Henry solubility constant Hcp: 5.4e-05
reference: Tucker et al. (1981)
  Henry solubility constant Hcp: 5.4e-05

## O=C1CCCCC1 [cyclohexanone]
[7]
  Henry solubility constant Hcp: 0.82

## C1=CCCCC1 [cyclohexene]
[4]
  Henry solubility constant Hcp: 0.00033
reference: Nielsen et al. (1994)
  Henry solubility constant Hcp: 0.00025

## C1CCCCCCC1 [cyclooctane]
[6]
  Henry solubility constant Hcp: 6.9e-05

## C1=C\CCCCCC/1 [cyclooctene]
[6]
  Henry solubility constant Hcp: 0.00021

## O=C1CCCC1 [cyclopentanone]
[7]
  Henry solubility constant Hcp: 0.82

## C1=CCCC1 [cyclopentene]
[4]
  Henry solubility constant Hcp: 0.00023

## C1CC1 [cyclopropane]
reference: Saidman et al. (1966)
  Henry solubility constant Hcp: 0.00011

## Brc1c(Br)c(Br)c(Oc2c(Br)c(Br)c(Br)c(Br)c2Br)c(Br)c1Br [decabromodiphenyl ether]
reference: Cetin and Odabasi (2005)
  Henry solubility constant Hcp: 18
reference: Long et al. (2017)
  Henry solubility constant Hcp: 18

## C[Si](C)(C)O[Si](C)(C)O[Si](C)(C)O[Si](C)(C)C [decamethyltetrasiloxane]
reference: Xu and Kropscott (2014)
  Henry solubility constant Hcp: 1.4e-07

## CCCCCCCCCC=O [decanal]
[1]
  Henry solubility constant Hcp: 0.17

## [2H][2H] [deuterium]
reference: Muccitelli and Wen (1978)
  Henry solubility constant Hcp: 7.9e-06

## O=C(O)C(Br)Br [dibromoethanoic acid]
[8]
  Henry solubility constant Hcp: 2200

## CCCCNCCCC [dibutylamine]
[9]
  Henry solubility constant Hcp: 0.11

## ClNCl [dichloramine]
[3]
  Henry solubility constant Hcp: 0.28

## O=C(O)C(Cl)Cl [dichloroethanoic acid]
[8]
  Henry solubility constant Hcp: 1200

## CCSCC [diethyl sulfide]
[10]
  Henry solubility constant Hcp: 0.0035

## FCF [difluoromethane]
reference: Anderson (2011)
  Henry solubility constant Hcp: 0.00068
reference: Kutsuna (2017)
  Henry solubility constant Hcp: 0.00064
reference: Maaßen (1995)
  Henry solubility constant Hcp: 0.00069
reference: Miguel et al. (2000)
  Henry solubility constant Hcp: 0.0003
reference: Reichl (1995)
  Henry solubility constant Hcp: 0.00069

## NCCOCCO [diglycolamine]
reference: Nguyen (2013)
  Henry solubility constant Hcp: 6100

## COCOC [dimethoxymethane]
reference: Ondo and Dohnal (2007)
  Henry solubility constant Hcp: 0.063

## CNC [dimethylamine]
[9]
  Henry solubility constant Hcp: 0.56

## CN(C)CCOCCO [dimethylaminoethoxyethanol]
reference: Nguyen (2013)
  Henry solubility constant Hcp: 4300

## [CH3][Hg][CH3] [dimethylmercury]
reference: Talmi and Mesmer (1975)
  Henry solubility constant Hcp: 0.0013

## CC(C)(C)C [dimethylpropane]
reference: Shoor et al. (1969)
  Henry solubility constant Hcp: 5.5e-06
[2]
  Henry solubility constant Hcp: 6.3e-06

## CS(C)=O [dimethylsulfoxide]
reference: Lee and Zhou (1994)
  Henry solubility constant Hcp: > 9900
reference: Watts and Brimblecombe (1987)
  Henry solubility constant Hcp: 940

## C1CN(CCOCCN2CCOCC2)CCO1 [dimorpholinodiethyl ether]
reference: Nguyen (2013)
  Henry solubility constant Hcp: 1800

## FN(F)N(F)F [dinitrogen tetrafluoride]
reference: Dean et al. (1973)
  Henry solubility constant Hcp: 8.4e-06

## CCCSSCCC [dipropyl disulfide]
[10]
  Henry solubility constant Hcp: 0.0024

## CCCOCCC [dipropyl ether]
reference: Hartkopf and Karger (1973)
  Henry solubility constant Hcp: 0.0022

## CCCNCCC [dipropylamine]
[9]
  Henry solubility constant Hcp: 0.19
reference: Leng et al. (2015a)
  Henry solubility constant Hcp: 0.12

## CCN [ethanamine]
reference: Butler and Ramchandani (1935)
  Henry solubility constant Hcp: 0.99
[9]
  Henry solubility constant Hcp: 0.8

## CCS [ethanethiol]
reference: Jou et al. (2021)
  Henry solubility constant Hcp: 0.0024
reference: Vitenberg et al. (1975)
  Henry solubility constant Hcp: 0.0022

## CCO [ethanol]
reference: Burnett (1963)
  Henry solubility constant Hcp: 2.1
reference: Butler et al. (1935)
  Henry solubility constant Hcp: 1.9
reference: Gupta et al. (2000)
  Henry solubility constant Hcp: 1.8
reference: Harger et al. (1950)
  Henry solubility constant Hcp: 1.9
reference: Jones (1983)
  Henry solubility constant Hcp: 1.9
reference: Park et al. (1987)
  Henry solubility constant Hcp: 1.9
reference: Pividal et al. (1992)
  Henry solubility constant Hcp: 3.1
reference: Richon et al. (1985)
  Henry solubility constant Hcp: 2
reference: Rohrschneider (1973)
  Henry solubility constant Hcp: 2.3
reference: Snider and Dawson (1985)
  Henry solubility constant Hcp: 1.9
reference: Straver and de Loos (2005)
  Henry solubility constant Hcp: 1.9
reference: Ueberfeld et al. (2001)
  Henry solubility constant Hcp: 1.1
reference: Vitenberg and Dobryakov (2008)
  Henry solubility constant Hcp: 1.8
reference: Willey et al. (2017)
  Henry solubility constant Hcp: 1.8

## C=COC(C)=O [ethenyl ethanoate]
reference: Böhme et al. (2008)
  Henry solubility constant Hcp: 0.02

## C=Cc1ccccc1 [ethenylbenzene]
reference: Bissonette et al. (1990)
  Henry solubility constant Hcp: 0.0029

## CCOC(=O)C(C)CC (stereo unspecified) [ethyl 2-methylbutanoate]
reference: Pollien et al. (2003)
  Henry solubility constant Hcp: 0.0089
reference: Roberts and Pollien (1997)
  Henry solubility constant Hcp: 0.027

## CCOC(=O)CC(C)C [ethyl 3-methylbutanoate]
reference: Wieland et al. (2015)
  Henry solubility constant Hcp: 0.011
